Patent US11130772B2, “CYP-eicosanoid derivatives” (MAX-DELBRUECK-CENTRUM FUER MOLEKULARE MEDIZIN, priority 2014, dated 2021)
Entries after “also recorded” stand apart in the source; their conditions may differ.

system: spontaneously beating neonatal rat cardiomyocytes (NRCMs); assay: Chronotropic effect on spontaneously beating neonatal rat cardiomyocytes (in vitro cardiac arrhythmia model); format: cell-based, neonatal Wistar rats; details: 30 nM final concentration, 5 min incubation
From the text: The activity of the n-3 PUFA analogues according to the invention can, for example, be determined in appropriate in vitro and/or in vivo assays. For instance, the biological activity of the n-3 PUFA analogues according to the present invention may be determined using the established cell model of Kang and Leaf (Proc Natl Acad Sci USA, 1994. 91(21): p. 9886-90.) known to those skilled in the art.
In order to measure the biological activities of the novel compounds an established cell model was used (Kang, J. X. and A. Leaf, Effects of long-chain polyunsaturated fatty acids on the contraction of neonatal rat cardiac myocytes. Proc Natl Acad Sci USA, 1994. 91(21): p. 9886-90.). The spontaneously beating neonatal rat cardiomyocytes (NRCMs) are a model system to investigate anti-arrhythmic effects of test-compounds.
Isolation and cultivation of NRCMs were performed as described previously (Wallukat, G; Wollenberger, A. Biomed Biochim Acta. 1987;78:634-639; Wallukat G, Homuth V, Fischer T, Lindschau C, Horstkamp B, Jupner A, Baur E, Nissen E, Vetter K, Neichel D, Dudenhausen J W, Haller H, Luft F C. J Clin Invest. 1999; 103: 945-952). Briefly, neonatal Wistar rats (1-2 days old) were killed in conformity to the recommendations of the Community of Health Service of the City of Berlin and the cardiomyocytes were dissociated from the minced ventricles with a 0.2% solution of crude trypsin. The isolated cells were then cultured as monolayers on the bottom (12.5 cm^2) of Falcon flasks in 2.5 ml of Halle SM 20-I medium equilibrated with humidified air. The medium contained 10% heat-inactivated FCS and 2 μmol/l fluoro-deoxyuridine (Serva, Heidelberg, Germany), the latter to prevent proliferation of non-muscle cells. The NRCMs (2.4×10^6 cells/flask) were cultured at 37° C. in an incubator. After 5 to 7 days, the NRCMs formed spontaneously beating cell clusters. […] On the day of the experiment, the culture medium was replaced by 2.0 ml fresh serum-containing medium. Two hours later, the beating rates were monitored at 37° C. using an inverted microscope equipped with a heating stage. To determine the basal rate, 6 to 8 individual clusters were selected and the number of contractions was counted for 15 sec. After that, the compound to be tested was added to the culture and the beating rate of the same clusters was monitored 5 min later again. Based on the difference between the basal and compound-induced beating rate of the individual clusters, the chronotropic effects (Δ beats/min) were calculated and are given as mean±SE values. N refers to the number of clusters monitored which originated, in general, from at least three independent NRCM cultures.
All compounds tested were added to the NRCMs at a final concentration of 30 nM and the measurement was performed after 5 min of incubation; except EPA that was used at a final concentration of 3.3 μM and the effect was monitored after 30 min of incubation.

Row | Compound | chronotropic effect on spontaneous beating rate (in words)
1 | CCC1OC1C/C=C\C/C=C\C/C=C\C/C=C\CCCC(=O)O (stereo not shown) [17,18-EEQ, 17,18-epoxyeicosatetraenoic acid, reference compound] | negative chronotropic effect
2 | CNC(=O)C(=O)NCCCC/C=C\CCCCCCCCCC1=NOS(=O)N1 (stereo not shown) [C38, N^1-methyl-N^2-(15-(2-oxido-3H-1,2,3,5-oxathiadiazol-4-yl)pentadec-5(Z)-en-1-yl)oxalamide] | negative chronotropic effect
3 | CNC(=O)C(=O)NCCCC/C=C\CCCCCCCCCP(=O)([O-])[O-].[Na+].[Na+] [C41, disodium 15-(2-(methylamino)-2-oxoacetamido)pentadec-10(Z)-enylphosphonate] | negative chronotropic effect
4 | CNC(=O)C(=O)NCCCC/C=C\CCCCCCCCCS(=O)(=O)[O-].[Na+] [C42, Sodium 15-(2-(methylamino)-2-oxoacetamido)pentadec-10(Z)-en-1-sulfonate] | negative chronotropic effect
5 | CNC(=O)C(=O)NCCCC/C=C\CCCCCCCCCSc1ccccc1O [C44, (Z)—N^1-(15-((2-hydroxyphenyl)thio)pentadec-5-en-1-yl)-N^2-methyloxalamide] | lowest activity; also recorded: negative chronotropic effect
6 | CNC(=O)C(=O)NCCCc1ccccc1CCCCCCP(=O)([O-])[O-].[Na+].[Na+] [C48] | negative chronotropic effects
7 | CNC(=O)C(=O)NCCCCc1ccccc1CCCCCCCCCP(=O)([O-])[O-].[Na+].[Na+] [C49] | negative chronotropic effects
8 | CNC(=O)C(=O)NCCCC/C=C\CCCCCCCCCC(=O)NS(=O)(=O)c1ccccc1 [C50, N^1-(16-phenylsulfonamido-16-oxohexadec-5(Z)-en-1-yl)-N^2-methyloxalamide] | negative chronotropic effect
9 | N^1-(15-((2-acetamidobenzo[d]thiazol-7-yl)oxy)pentadec-5(Z)-en-1-yl)-N^2-methyloxalamide [C43] | negative chronotropic effect

same assay, conditions: 30 nM final concentration, 5 min incubation, n=12 clusters

Row | Compound | chronotropic effect (Δ beats/min), mean±SE
10 | CNC(=O)C(=O)NCCCC/C=C\CCCCCCCCCSc1ccccc1O [C44, (Z)—N^1-(15-((2-hydroxyphenyl)thio)pentadec-5-en-1-yl)-N^2-methyloxalamide] | −7.5±4.5 beats/min
